This passage reports IC50 results from US20210024545A1, “SUBSTITUTED DIAZAHETERO-BICYCLIC COMPOUNDS AND THEIR USE” (Bayer Aktiengesellschaft, priority 2016, published 2021).

For one test, the target named is human TASK-3 (Homo sapiens, UniProt Q9NPC2). Briefly: Inhibition of recombinant TASK-3 in stably transfected CHO cells, KCl-induced depolarization, voltage-sensitive dye (B-2). The class given is cell-based. Also on record: expressed in transfected cells; host or cells: stably transfected CHO cells. Conditions: depolarization induced by 40 mM potassium chloride, some mean values from multiple determinations. In short, it runs like this: (§1)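 Stably transfected CHO cells loaded with a voltage-sensitive membrane potential dye. Depolarization was induced with 40 mM KCl, and compound inhibition of it was read by fluorescence. IC50 is the concentration blocking half of the KCl-induced depolarization; some values are means of multiple independent determinations.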
human TASK-3, sequence (Q9NPC2 whole entry): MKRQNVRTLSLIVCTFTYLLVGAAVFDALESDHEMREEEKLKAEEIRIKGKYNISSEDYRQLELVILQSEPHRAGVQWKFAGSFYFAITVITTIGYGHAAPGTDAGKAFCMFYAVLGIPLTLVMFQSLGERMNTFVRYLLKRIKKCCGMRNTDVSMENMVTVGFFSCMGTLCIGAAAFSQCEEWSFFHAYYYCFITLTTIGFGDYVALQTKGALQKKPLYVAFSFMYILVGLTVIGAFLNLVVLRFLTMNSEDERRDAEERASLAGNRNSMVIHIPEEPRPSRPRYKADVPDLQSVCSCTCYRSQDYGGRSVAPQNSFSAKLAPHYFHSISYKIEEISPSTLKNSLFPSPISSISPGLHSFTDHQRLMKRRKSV

A further test addresses human TASK-1 (Homo sapiens, UniProt O14649). Briefly: Inhibition of recombinant TASK-1 in stably transfected CHO cells, KCl-induced depolarization, voltage-sensitive dye (B-2). It counts as cell-based. Set-up: expressed in transfected cells; host or cells: stably transfected CHO cells. Conditions: depolarization induced by 40 mM potassium chloride, some mean values from multiple determinations. The procedure, abridged: as §1

The IC50 is the concentration at which inhibition is half-maximal.

human TASK-1, sequence (O14649 whole entry): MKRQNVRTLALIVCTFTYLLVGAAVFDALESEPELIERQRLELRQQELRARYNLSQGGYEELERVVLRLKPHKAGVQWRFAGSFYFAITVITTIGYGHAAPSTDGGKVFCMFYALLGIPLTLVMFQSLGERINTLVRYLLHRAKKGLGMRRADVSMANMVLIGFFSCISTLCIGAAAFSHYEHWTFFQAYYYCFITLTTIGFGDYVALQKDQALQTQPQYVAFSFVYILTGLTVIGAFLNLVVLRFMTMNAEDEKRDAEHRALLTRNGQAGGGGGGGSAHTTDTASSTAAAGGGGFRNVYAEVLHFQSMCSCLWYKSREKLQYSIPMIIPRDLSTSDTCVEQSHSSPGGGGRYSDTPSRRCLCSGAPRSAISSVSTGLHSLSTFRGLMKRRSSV

`O=C(Nc1c(F)cccc1F)N1C2CCC1CN(Cc1c(-c3ccc(Cl)cc3)nc3ccccn13)C2` [Example 166, 3-{[2-(4-Chlorophenyl)imidazo[1,2-a]pyridin-3-yl]methyl}-N-(2,6-difluorophenyl)-3,8-diazabicyclo[3.2.1]octane-8-carboxamide]: the figures for the IC50 on human TASK-3 and at human TASK-1 were 44 nM and 990 nM, respectively.
With `Cc1ccc(NC(=O)N2C3CCC2CN(Cc2c(-c4ccc(Cl)cc4)nc4ccccn24)C3)c(C)c1` [Example 167, 3-{[2-(4-Chlorophenyl)imidazo[1,2-a]pyridin-3-yl]methyl}-N-(2,4-dimethylphenyl)-3,8-diazabicyclo[3.2.1]octane-8-carboxamide], the IC50 was 350 nM on human TASK-3 and 3000 nM on human TASK-1.
The corresponding values for `CC(C)NC(=O)N1C2COCC1CN(Cc1c(-c3ccc(Cl)cc3)nc3ccccn13)C2` [Example 168, 7-{[2-(4-Chlorophenyl)imidazo[1,2-a]pyridin-3-yl]methyl}-N-isopropyl-3-oxa-7,9-diazabicyclo[3.3.1]nonane-9-carboxamide] are 130 nM and 1400 nM.
Regarding `Cc1cccc(Cl)c1NC(=O)N1C2COCC1CN(Cc1c(-c3ccc(Cl)cc3)nc3ccccn13)C2` [Example 169, N-(2-Chloro-6-methylphenyl)-7-{[2-(4-chlorophenyl)imidazo[1,2-a]pyridin-3-yl]methyl}-3-oxa-7,9-diazabicyclo[3.3.1]nonane-9-carboxamide], the IC50 on human TASK-3 amounted to 110 nM; on human TASK-1, 3600 nM.
`O=C(NC1CC1)N1C2CCC1CN(Cc1c(-c3ccc(Cl)cc3)nc3ccccn13)C2` [Example 170, 3-{[2-(4-Chlorophenyl)imidazo[1,2-a]pyridin-3-yl]methyl}-N-cyclopropyl-3,8-diazabicyclo[3.2.1]octane-8-carboxamide]: the figures for the IC50 on human TASK-3 and on human TASK-1 were 64 nM and 1200 nM, respectively.
With `O=C(Nc1ccccc1Cl)N1C2CCC1CN(Cc1c(-c3ccc(Cl)cc3)nc3ccccn13)C2` [Example 171, N-(2-Chlorophenyl)-3-{[2-(4-chlorophenyl)imidazo[1,2-a]pyridin-3-yl]methyl}-3,8-diazabicyclo[3.2.1]octane-8-carboxamide], the results for the IC50 at human TASK-3 and on human TASK-1 were 26 nM and 1800 nM, respectively.
The corresponding values for `CN(C(=O)N1C2CCC1CN(Cc1c(-c3ccc(Cl)cc3)nc3ccccn13)C2)c1ccccc1` [Example 172, 3-{[2-(4-Chlorophenyl)imidazo[1,2-a]pyridin-3-yl]methyl}-N-methyl-N-phenyl-3,8-diazabicyclo[3.2.1]octane-8-carboxamide] are 80 nM and 5200 nM.
`O=C(N1CCOCC1)N1C2CCC1CN(Cc1c(-c3ccc(Cl)cc3)nc3ccccn13)C2` [Example 173, (3-{[2-(4-Chlorophenyl)imidazo[1,2-a]pyridin-3-yl]methyl}-3,8-diazabicyclo[3.2.1]oct-8-yl)(morpholin-4-yl)methanone]: the results for the IC50 at human TASK-3 and on human TASK-1 were 32 nM and 1700 nM, respectively.
The corresponding values for `CC(C)N(C(=O)N1C2CCC1CN(Cc1c(-c3ccc(Cl)cc3)nc3ccccn13)C2)C(C)C` [Example 174, 3-{[2-(4-Chlorophenyl)imidazo[1,2-a]pyridin-3-yl]methyl}-N,N-diisopropyl-3,8-diazabicyclo[3.2.1]octane-8-carboxamide] are 13 nM and 91 nM.
Turning to `CCN(C(=O)N1C2CCC1CN(Cc1c(-c3ccc(Cl)cc3)nc3ccccn13)C2)C1CCCCC1` [Example 175, 3-{[2-(4-Chlorophenyl)imidazo[1,2-a]pyridin-3-yl]methyl}-N-cyclohexyl-N-ethyl-3,8-diazabicyclo[3.2.1]octane-8-carboxamide], the IC50 on human TASK-3 amounted to 200 nM; at human TASK-1, 43 nM.
The corresponding values for `O=C(N1CCCC1)N1C2CCC1CN(Cc1c(-c3ccc(Cl)cc3)nc3ccccn13)C2` [Example 176, (3-([2-(4-Chlorophenyl)imidazo[1,2-a]pyridin-3-yl]methyl}-3,8-diazabicyclo[3.2.1]oct-8-yl)(pyrrolidin-1-yl)methanone] are 10 nM and 49 nM.
`CCN(C(=O)N1C2CCC1CN(Cc1c(-c3ccc(Cl)cc3)nc3ccccn13)C2)c1ccccc1` [Example 177, 3-{[2-(4-Chlorophenyl)imidazo[1,2-a]pyridin-3-yl]methyl}-N-ethyl-N-phenyl-3,8-diazabicyclo[3.2.1]octane-8-carboxamide]: the IC50 worked out at 130 nM at human TASK-3 and 4000 nM at human TASK-1.
Turning to `CC(C)N(C)C(=O)N1C2CCC1CN(Cc1c(-c3ccc(Cl)cc3)nc3ccccn13)C2` [Example 178, 3-{[2-(4-Chlorophenyl)imidazo[1,2-a]pyridin-3-yl]methyl}-N-isopropyl-N-methyl-3,8-diazabicyclo[3.2.1]octane-8-carboxamide], the figures for the IC50 on human TASK-3 and on human TASK-1 were 17 nM and 290 nM, respectively.
As for `O=C(N1CCCCC1)N1C2CCC1CN(Cc1c(-c3ccc(Cl)cc3)nc3ccccn13)C2` [Example 179, (3-{[2-(4-Chlorophenyl)imidazo[1,2-a]pyridin-3-yl]methyl}-3,8-diazabicyclo[3.2.1]oct-8-yl)(piperidin-1-yl)methanone], the IC50 at human TASK-3 was 2.9 nM; on human TASK-1, 270 nM.
`CN(C)C(=O)N1C2CCC1CN(Cc1c(-c3ccc(Cl)cc3)nc3ccccn13)C2` [Example 180, 3-{[2-(4-Chlorophenyl)imidazo[1,2-a]pyridin-3-yl]methyl}-N,N-dimethyl-3,8-diazabicyclo[3.2.1]octane-8-carboxamide]: the figures for the IC50 on human TASK-3 and at human TASK-1 were 23 nM and 220 nM, respectively.
As for `CCN(C(=O)N1C2CCC1CN(Cc1c(-c3ccc(Cl)cc3)nc3ccccn13)C2)c1ccc(C)cc1` [Example 181, 3-{[2-(4-Chlorophenyl)imidazo[1,2-a]pyridin-3-yl]methyl}-N-ethyl-N-(4-methylphenyl)-3,8-diazabicyclo[3.2.1]octane-8-carboxamide], the values for the IC50 at human TASK-3 and at human TASK-1 were 1000 nM and 4100 nM, respectively.
`CC(C)N(C(=O)N1C2CCC1CN(Cc1c(-c3ccc(Cl)cc3)nc3ccccn13)C2)c1ccc(Cl)cc1` [Example 182, N-(4-Chlorophenyl)-3-{[2-(4-chlorophenyl)imidazo[1,2-a]pyridin-3-yl]methyl}-N-isopropyl-3,8-diazabicyclo[3.2.1]octane-8-carboxamide]: the IC50 on human TASK-3 is 1000 nM; at human TASK-1, 6100 nM.
As to `O=C(N1CCSCC1)N1C2CCC1CN(Cc1c(-c3ccc(Cl)cc3)nc3ccccn13)C2` [Example 183, (3-{[2-(4-Chlorophenyl)imidazo[1,2-a]pyridin-3-yl]methyl}-3,8-diazabicyclo[3.2.1]oct-8-yl)(thiomorpholin-4-yl)methanone], the values for the IC50 on human TASK-3 and on human TASK-1 were 26 nM and 450 nM, respectively.
Turning to `COC(=O)N1C2CCC1CN(Cc1c(-c3ccc(Cl)cc3)nc3ccccn13)C2` [Example 184, Methyl 3-{[2-(4-chlorophenyl)imidazo[1,2-a]pyridin-3-yl]methyl}-3,8-diazabicyclo[3.2.1]octane-8-carboxylate], the IC50 on human TASK-3 was 72 nM; at human TASK-1, 2900 nM.
On to `O=C(OC1CCCC1)N1C2CCC1CN(Cc1c(-c3ccc(Cl)cc3)nc3ccccn13)C2` [Example 186, Cyclopentyl 3-{[2-(4-chlorophenyl)imidazo[1,2-a]pyridin-3-yl]methyl}-3,8-diazabicyclo[3.2.1]octane-8-carboxylate], for which the IC50 was found to be 44 nM at human TASK-3 and 730 nM on human TASK-1.
The corresponding values for `O=C(OC1CCCCC1)N1C2CCC1CN(Cc1c(-c3ccc(Cl)cc3)nc3ccccn13)C2` [Example 187, Cyclohexyl 3-{[2-(4-chlorophenyl)imidazo[1,2-a]pyridin-3-yl]methyl}-3,8-diazabicyclo[3.2.1]octane-8-carboxylate] are 200 nM and 3800 nM.
The corresponding values for `CCN(CC)C(=O)N1C2COCC1CN(Cc1c(-c3ccc(Cl)cc3)nc3ccccn13)C2` [Example 188, 7-{[2-(4-Chlorophenyl)imidazo[1,2-a]pyridin-3-yl]methyl}-N,N-diethyl-3-oxa-7,9-diazabicyclo[3.3.1]nonane-9-carboxamide] are 5.9 nM and 60 nM.
The corresponding values for `O=C(N1CCOCC1)N1C2COCC1CN(Cc1c(-c3ccc(Cl)cc3)nc3ccccn13)C2` [Example 189, (7-{[2-(4-Chlorophenyl)imidazo[1,2-a]pyridin-3-yl]methyl}-3-oxa-7,9-diazabicyclo[3.3.1]non-9-yl)(morpholin-4-yl)methanone] are 520 nM and 8300 nM.
For `CC(C)N(C(=O)N1C2COCC1CN(Cc1c(-c3ccc(Cl)cc3)nc3ccccn13)C2)C(C)C` [Example 190, 7-{[2-(4-Chlorophenyl)imidazo[1,2-a]pyridin-3-yl]methyl}-N,N-diisopropyl-3-oxa-7,9-diazabicyclo[3.3.1]nonane-9-carboxamide], the results for the IC50 at human TASK-3 and on human TASK-1 were 19 nM and 170 nM, respectively.
On to `CCN(C(=O)N1C2COCC1CN(Cc1c(-c3ccc(Cl)cc3)nc3ccccn13)C2)C1CCCCC1` [Example 191, 7-{[2-(4-Chlorophenyl)imidazo[1,2-a]pyridin-3-yl]methyl}-N-cyclohexyl-N-ethyl-3-oxa-7,9-diazabicyclo[3.3.1]nonane-9-carboxamide], for which the IC50 on human TASK-3 was 190 nM; at human TASK-1, 9500 nM.
In the same order, the values of `O=C(N1CCCC1)N1C2COCC1CN(Cc1c(-c3ccc(Cl)cc3)nc3ccccn13)C2` [Example 192, (7-{[2-(4-Chlorophenyl)imidazo[1,2-a]pyridin-3-yl]methyl}-3-oxa-7,9-diazabicyclo[3.3.l]non-9-yl)(pyrrolidin-1-yl)methanone] are 73 nM and 870 nM.
